Experimental data published in patent publication US7439251B2, “Methods and compositions for treatment of central and peripheral nervous system disorders and novel compounds useful therefor” (Israel Institute for Biological Research, priority 2002, dated 2008).
Substitutions are numbered along the chain they refer to.

Columns and labels:
M1 mAChR = target: T1, M1 mAChR (Rattus norvegicus, UniProt P08482); experiment: α-APPs secretion in cell cultures stably transfected with M1 mAChR; assay type: cell-based; details: for α-APPs secretion (% of max CCh): maximal response vs 10^−4 M carbachol
T1 construct: expressed in transfected cells
T1 sequence (P08482 1-460): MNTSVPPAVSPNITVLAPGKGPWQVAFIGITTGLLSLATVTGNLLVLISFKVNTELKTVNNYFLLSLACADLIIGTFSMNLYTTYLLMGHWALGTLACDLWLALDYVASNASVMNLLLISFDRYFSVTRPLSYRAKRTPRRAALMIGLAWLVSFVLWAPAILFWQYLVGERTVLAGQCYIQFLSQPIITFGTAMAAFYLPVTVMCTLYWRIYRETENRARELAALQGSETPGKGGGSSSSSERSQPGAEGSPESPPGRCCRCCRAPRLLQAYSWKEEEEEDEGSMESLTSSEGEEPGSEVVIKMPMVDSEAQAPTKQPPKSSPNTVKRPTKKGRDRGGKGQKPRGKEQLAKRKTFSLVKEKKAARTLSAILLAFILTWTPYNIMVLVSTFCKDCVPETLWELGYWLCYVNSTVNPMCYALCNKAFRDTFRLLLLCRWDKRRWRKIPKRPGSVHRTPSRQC
Procedure: Cells were plated in 6 well culture plates and used at the age of 3-5 days after plating. […] Cells exposed to medium alone are referred as controls.
Cell supernatants were collected into Eppendorff tubes containing a cocktail of protease intubitors (5 units/ml aprotinin, […], 5 mg/ml leupeptin and 10^−4 M Phenylmethylsulfonylfluoride (PMSF, a protease inhibitor); Sigma, USA). The collected media were concentrated with Centricon tubes (Amicon, Beverly, Mass., USA) and kept frozen for α-APPs secretion determination. Equal amounts of protein (50-100 μg) were loaded and separated on 10% sodium dodecyl sulfate-polyacrylamide gel electrophoresis (SDS-PAGE) Followed by western blotting onto nitrocellulose membrane, blocked by fat-free milk, and probed for 24 hours at 4° C., with anti-Alzheimer's precursor protein, A4 monoclonal antibody 22C11 (0.25 μg/ml; Boehringer Mannheim, Germany). The nitrocellulose membranes were washed and incubated for 2 hours at room temperature with peroxidase-linked goat anti-mouse IgG antibodies (Jackson Immunoresearch, USA), followed by extensive washout and staining with enhanced chemiluminescence detection system (Amersham). Quantitative evaluation of the immunoreactive bands, on the exposed films, was performed by video-imaging densitometry (Gel-aid software; Galai Co., Israel). APPs levels were expressed as x-fold increase over basal levels.

human M1 receptor = target: T2, human M1 receptor (Homo sapiens, UniProt P11229); experiment: PI hydrolysis, human M1; assay type: cell-based
T2 construct: expressed in transfected cells
T2 sequence (P11229 1-460): T1 sequence (P08482 1-460) with V5A, S254T, S309P, K320R, G337A, V413I

[1] = Morris water maze in aged rats; assay type: in vivo, rat; details: for reversal learning: AF267B 1 mg/kg, AF292 1 and 0.5 mg/kg po
From the text: Old (22-24 months old) and young (three months old) Sprague-Dawley rats had been tested in the MWM.

[2] = Pharmacokinetic study in dogs; assay type: in vivo, Beagle dog; details: for bioavailability: Beagle, dog, plasma, po, read-out: Bioavailability (% F)
From the text: (§1) The results of the PK profile of AF292 in rats and Beagle dogs (overnight fasting; drug administered in water solution; gavage) are listed in Table 1.

rat M1 mAChR = rat M1 mAChR (Rattus norvegicus, UniProt P08482); experiment: PI turnover, rat M1 mAChR; assay type: cell-based
[3] = tested on: cortical and hippocampal cell culture; experiment: Protection against NMDA-induced cell death in primary rat brain cultures; details: for neuroprotective potency against 200 μM NMDA, compared with 20 μM MK801: 100 μM agonist; for prevention of NMDA-induced cell death: 20-24 hrs
[4] = tested on: rat pheochromocytoma cells transfected with the M1 mAChR
[5] = Pharmacokinetic study in rats; assay type: in vivo, rat; details: for bioavailability: rat, plasma, Rats, po, read-out: Bioavailability (% F)
From the text: as §1

tau = experiment: Tau phosphorylation, AT8 immunoblot; assay type: cell-based; details: 100 μM; to the control level
From the text: Following the experimental design of Sadot et al., J.Neurochem. […] By linking an M1 agonist to an antioxidant moiety tau phophorylation may be decreased, providing a new therapeutic strategy in a variety of CNS disease states due to combined damage due to oxidative stress and tau hyperphosphorylation.

SMILES	α-APPs secretion, comparison in words (M1 mAChR)	PI turnover vs. CCh (as 100%) (human M1 receptor)	reversal learning [1]	PI turnover vs. CCh (as 100%) (rat M1 mAChR)	neuroprotective potency against 200 μM NMDA, compared with 20 μM MK801 [3]	prevention of NMDA-induced cell death [3]	H2O2-induced toxicity [4]	cell death induced by β-A25-35 (MTT) [4]	phosphorylated tau (AT8) (tau)	α-APPs secretion (% of max CCh) (M1 mAChR)	biovailability in rats [5]	other results
CC[C@@H]1SC2(CCN(C)CC2)NC1=O [AF267B, (S)-2-ethyl-8-methyl-1-thia-4,8-diaza-spiro[4.5]decan-3-one]	more efficacious and more potent than its racemate	~66%	improved significantly the reversal learning	PI, rat M1 mAChR: 75%	slightly less	effective in prevention of cell death	protect the cells	significantly attenuated	induce dephosphorylation of tau proteins			α-APPs secretion, fold increase over control (M1 mAChR; 10^−4 M, 1 hour): about 6 fold; swimming ability [1]: no significant effect on the swimming ability; learning ([1]; 1 mg/kg): tendency for improvement; bioavailability ([2]; Dogs., 1 mg/kg, p.o.): 53%; Tmax ([2]; Dogs., 1 mg/kg, p.o.): 34.8 to 45 min; bioavailability ([5]; calculated for 2 mg/kg): 30%
CC1=NCC2(CCN(C)CC2)S1 [AF150(S), 2,8-Dimethyl-1-thia-3,8-diaza-spiro[4.5]dec-2-ene]					slightly less	effective in prevention of cell death	protect the cells	significantly attenuated		50%	31%	
CC[C@@H]1SC2(CCNCC2)NC1=O [AF292, (S)-2-Ethyl-1-thia-4,8-diaza-spiro[4.5]decan-3-one]	Equipotent with AF267B	~35%	did not reach significance	PI, rat M1 mAChR; 50%			protect the cells	significantly attenuated	induce dephosphorylation of tau proteins	100%	49%	probe trial, spatial bias ([1]; both doses (1 and 0.5 mg/kg po)): tendency for partial spatial bias; bioavailability ([2]; Dogs, 5 mg/kg. p.o.): 70%; MTT assay against Aβ 25-35 & H2O2 in cell cultures transfected with rat M1 mAChR [4]: Equipotent with AF267B & CCh at 100; bioavailability ([5]; 10 mg/kg, p.o.): 49%
